The target of assay [1] is recombinant human FLAP protein (Homo sapiens (Human), UniProt P20292). The assay is described as follows: FLAP binding assay (Scintillation Proximity Assay, displacement of [125I]L-691,831). Particulars: read-out: FLAP SPA IC50. The method, then:
Assessment of Biological Properties 1. Binding Assay: Compounds are assessed for the ability to bind to FLAP in a binding assay that measures compound-specific displacement of an iodinated (^125I) FLAP inhibitor via a Scintillation Proximity Assay format (adapted from S. Charleson et al., Mol. Pharmacol., 1992, 41, 873-879). […] The cells are lysed with a Dounce homogenizer and the material is centrifuged at 10,000×g for 10 minutes. The supernatant is then collected and centrifuged at 100,000×g for 60 minutes. To prepare membrane protein for an assay, an aliquot of the 100,000×g pellet is resuspended in 1 ml of buffer A, Dounce homogenized, and finally subjected to polytron mixing (30 seconds). […] Mol. Pharmacol., 41, 873-879, 1992) and finally 50 μl of the bead/protein mixture. (final concentrations: beads, 200 μg/well; protein, 5 μg/well; […] The plates are shaken for 2 h before reading on a Microbeta plate reader.
(In a scintillation proximity assay essentially only radioactivity close to the scintillant gives light.)

The test system of assay [2] is synthesis of LTB4 in human whole blood. The assay is described as follows: Human whole blood LTB4 production inhibition assay. Particulars: calcimycin stimulated, read-out: hWB LTB4 IC50. The assay is classed as cell-based. The method, then:
Compounds are additionally tested in a human whole blood assay to determine their ability to inhibit the synthesis of LTB4 in a cellular system. Compounds are combined with heparinized human whole blood and incubated for 15 minutes at 37° C. Calcimycin (20 μM final, prepared in phosphate-buffered saline, pH 7.4) is then added and the mixture is incubated for another 30 minutes at 37° C. The samples are centrifuged for 5 min at low speed (1500×g) and the plasma layer is removed. Plasma LTB4 concentrations are then measured using an antibody-based homogenous time-resolved fluorescence method (CisBio, Bedford, Mass.).

Structures are written as SMILES. pIC50: −log10 of the molar value.

Sequence of recombinant human FLAP protein (P20292 whole entry): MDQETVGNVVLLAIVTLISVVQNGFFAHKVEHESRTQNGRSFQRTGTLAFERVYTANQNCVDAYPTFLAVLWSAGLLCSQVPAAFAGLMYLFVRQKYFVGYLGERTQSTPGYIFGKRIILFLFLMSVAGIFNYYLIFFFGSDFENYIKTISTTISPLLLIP

What is called pIC50 is the IC50 on a negative log10 scale, so that one unit is a factor of ten. Consider `CN(C)c1nc(C2(c3ccc(-c4cnc(N)nc4)nc3)CCC2)no1` [Example 15, 5-(5-{1-[5-(dimethylamino)-1,2,4-oxadiazol-3-yl]cyclobutyl}pyridin-2-yl)pyrimidin-2-amine], for which the values for the pIC50 in assay [1] and in assay [2] were 6.55 and 5.59, respectively.
Taken in the same sequence, the figures for `Nc1ncc(-c2ccc(C3(c4noc(-c5ccc(NCC(=O)O)nc5)n4)CCC3)cn2)cn1` [Example 16, N-[5-(3-{1-[6-(2-aminopyrimidin-5-yl)pyridin-3-yl]cyclobutyl}-1,2,4-oxadiazol-5-yl)pyridin-2-yl]glycine] were 7.96 and 5.66.
Taken in the same sequence, the figures for `Nc1ncc(-c2ccc(C3(c4noc(-c5ccc(S(N)(=O)=O)cc5)n4)CCC3)cn2)cn1` [Example 17, 4-(3-{1-[6-(2-aminopyrimidin-5-yl)pyridin-3-yl]cyclobutyl}-1,2,4-oxadiazol-5-yl)benzenesulfonamide] were 8.06 and under 5.30.
Taken in the same sequence, the figures for `Nc1ncc(-c2ccc(C3(c4noc(-c5ccc(NCC6(O)CC6)nc5)n4)CCC3)cn2)cn1` [Example 18, 1-({[5-(3-{1-[6-(2-aminopyrimidin-5-yl)pyridin-3-yl]cyclobutyl}-1,2,4-oxadiazol-5-yl)pyridin-2-yl]amino}methyl)cyclo-propanol] were 8.74 and 7.02.
`Nc1ncc(-c2ccc(C3(c4noc(-c5cccc(S(N)(=O)=O)c5)n4)CCC3)cn2)cn1` [Example 19, 3-(3-{1-[6-(2-aminopyrimidin-5-yl)pyridin-3-yl]cyclobutyl}-1,2,4-oxadiazol-5-yl)benzenesulfonamide]: the pIC50 in assay [1] is 7.24; in assay [2], under 5.30.
Taken in the same sequence, the figures for `Cn1cc(-c2nc(C3(c4ccc(-c5cnc(N)nc5)nc4)CCC3)no2)c(C(F)(F)F)n1` [Example 20, 5-[5-(1-{5-[1-methyl-3-(trifluoromethyl)-1H-pyrazol-4-yl]-1,2,4-oxadiazol-3-yl}cyclobutyl)pyridin-2-yl]pyrimidin-2-amine] were 8.04 and 6.28.
Taken in the same sequence, the figures for `CC(C)(CO)Nc1ccc(-c2nc(C3(c4ccc(-c5cnc(N)nc5)nc4)CCC3)no2)cn1` [Example 21, 2-{[5-(3-{1-[6-(2-aminopyrimidin-5-yl)pyridin-3-yl]cyclobutyl}-1,2,4-oxadiazol-5-yl)pyridin-2-yl]amino}-2-methylpropan-1-ol] were 8.59 and 6.60.
Taken in the same sequence, the figures for `Nc1ncc(-c2ccc(C3(c4noc(-c5ccc(OCCO)nc5)n4)CCC3)cn2)cn1` [Example 22, 2-{[5-(3-{1-[6-(2-aminopyrimidin-5-yl)pyridin-3-yl]cyclobutyl}-1,2,4-oxadiazol-5-yl)pyridin-2-yl]oxy}ethanol] were 8.60 and 6.85.
As to `Nc1ncc(-c2ccc(C3(c4noc(-c5cscn5)n4)CCC3)cn2)cn1` [Example 23, 5-(5-{1-[5-(1,3-thiazol-4-yl)-1,2,4-oxadiazol-3-yl]cyclobutyl}pyridin-2-yl)pyrimidin-2-amine], the pIC50 in assay [1] is 7.59; in assay [2] it was 6.37.
As to `Nc1ncc(-c2ccc(C3(c4noc(-c5cocn5)n4)CCC3)cn2)cn1` [Example 24, 5-(5-{1-[5-(1,3-oxazol-4-yl)-1,2,4-oxadiazol-3-yl]cyclobutyl}pyridin-2-yl)pyrimidin-2-amine], the values for the negative-log IC50 (pIC50) in assay [1] and in assay [2] were 6.96 and 6.00, respectively.
Taken in the same sequence, the figures for `Nc1ncc(-c2ccc(C3(c4noc(-c5cnn6cccnc56)n4)CCC3)cn2)cn1` [Example 25, 5-(5-{1-[5-(pyrazolo[1,5-a]pyrimidin-3-yl)-1,2,4-oxadiazol-3-yl]cyclobutyl}pyridin-2-yl)pyrimidin-2-amine] were 8.40 and 7.34.
Taken in the same sequence, the figures for `Cn1cc(-c2nc(C3(c4ccc(-c5cnc(N)nc5)nc4)CCC3)no2)ccc1=O` [Example 26, 5-(3-{1-[6-(2-aminopyrimidin-5-yl)pyridin-3-yl]cyclobutyl}-1,2,4-oxadiazol-5-yl)-1-methylpyridin-2(1H)-one] were 6.96 and 6.14.
Take `Nc1ncc(-c2ccc(C3(c4noc(-c5ccc6nccn6c5)n4)CCC3)cn2)cn1` [Example 27, 5-(5-{1-[5-(imidazo[1,2-a]pyridin-6-yl)-1,2,4-oxadiazol-3-yl]cyclobutyl}pyridin-2-yl)pyrimidin-2-amine]: the results for the pIC50 in assay [1] and in assay [2] were 7.91 and 6.38, respectively.
Turning to `CC(CO)n1cc(-c2nc(C3(c4ccc(-c5cnc(N)nc5)nc4)CCC3)no2)cn1` (centres unmarked) [Example 29, 2-[4-(3-{1-[6-(2-aminopyrimidin-5-yl)pyridin-3-yl]cyclobutyl}-1,2,4-oxadiazol-5-yl)-1H-pyrazol-1-yl]propan-1-ol], the figures for the pIC50 in assay [1] and in assay [2] were 7.46 and 6.49, respectively.
As for `CC(C)(CO)n1cc(-c2nc(C3(c4ccc(-c5cnc(N)nc5)nc4)CCC3)no2)cn1` [Example 30, 2-[4-(3-{1-[6-(2-aminopyrimidin-5-yl)pyridin-3-yl]cyclobutyl}-1,2,4-oxadiazol-5-yl)-1H-pyrazol-1-yl]-2-methylpropan-1-ol], the negative logarithm of the IC50 (pIC50) in assay [1] is 7.48; in assay [2], 6.40.
Taken in the same sequence, the figures for `Nc1ncc(-c2ccc(C3(c4noc(-c5ccc(-n6ccnc6)nc5)n4)CCC3)cn2)cn1` [Example 31, 5-[5-(1-{5-[6-(1H-imidazol-1-yl)pyridin-3-yl]-1,2,4-oxadiazol-3-yl}cyclobutyl)pyridin-2-yl]pyrimidin-2-amine] were 8.72 and 6.52.
On to `Nc1ncc(-c2ccc(C3(c4noc(-c5ccc(O)cc5)n4)CCC3)cn2)cn1` [Example 32, 4-(3-{1-[6-(2-aminopyrimidin-5-yl)pyridin-3-yl]cyclobutyl}-1,2,4-oxadiazol-5-yl)phenol], for which the pIC50 in assay [1] is 8.54; in assay [2], 6.85.
Taken in the same sequence, the figures for `Nc1ncc(-c2ccc(C3(c4noc(-c5ccc(NC(CO)CO)nc5)n4)CCC3)cn2)cn1` [Example 33, 2-{[5-(3-{1-[6-(2-aminopyrimidin-5-yl)pyridin-3-yl]cyclobutyl}-1,2,4-oxadiazol-5-yl)pyridin-2-yl]amino}propane-1,3-diol] were 8.66 and 5.59.
Taken in the same sequence, the figures for `CN(C)C(=O)[C@@H]1CCCN1c1ccc(-c2nc(C3(c4ccc(-c5cnc(N)nc5)nc4)CCC3)no2)cn1` [Example 34, 1-[5-(3-{1-[6-(2-aminopyrimidin-5-yl)pyridin-3-yl]cyclobutyl}-1,2,4-oxadiazol-5-yl)pyridin-2-yl]-N,N-dimethyl-L-prolinamide] were 7.40 and 5.74.
Taken in the same sequence, the figures for `Nc1ncc(-c2ccc(C3(c4noc(-c5ccc(N6CCC[C@H]6C(=O)O)nc5)n4)CCC3)cn2)cn1` [Example 35, 1-[5-(3-{1-[6-(2-aminopyrimidin-5-yl)pyridin-3-yl]cyclobutyl}-1,2,4-oxadiazol-5-yl)pyridin-2-yl]-L-proline] were 7.37 and under 5.30.
`COC(=O)[C@@H]1CCCN1c1ccc(-c2nc(C3(c4ccc(-c5cnc(N)nc5)nc4)CCC3)no2)cn1` [Example 36, methyl 1-[5-(3-{1-[6-(2-aminopyrimidin-5-yl)pyridin-3-yl]cyclobutyl}-1,2,4-oxadiazol-5-yl)pyridin-2-yl]-L-prolinate]: the pIC50 in assay [1] is 8.23; in assay [2], 5.85.
Taken in the same sequence, the figures for `Cn1cnnc1-c1nc(C2(c3ccc(-c4cnc(N)nc4)nc3)CCC2)no1` [Example 37, 5-(5-{1-[5-(4-methyl-4H-1,2,4-triazol-3-yl)-1,2,4-oxadiazol-3-yl]cyclobutyl}pyridin-2-yl)pyrimidin-2-amine] were 6.96 and 6.10.
Taken in the same sequence, the figures for `COC(=O)[C@H]1CNCCN1c1ccc(-c2nc(C3(c4ccc(-c5cnc(N)nc5)nc4)CCC3)no2)cn1` [Example 38, methyl (2R)-1-[5-(3-{1-[6-(2-aminopyrimidin-5-yl)pyridin-3-yl]cyclobutyl}-1,2,4-oxadiazol-5-yl)pyridin-2-yl]piperazine-2-carboxylate] were 8.49 and 7.12.
Taken in the same sequence, the figures for `COC(=O)[C@H]1CN(c2ccc(-c3nc(C4(c5ccc(-c6cnc(N)nc6)nc5)CCC4)no3)cn2)CCN1` [Example 40, methyl (2R)-4-[5-(3-{1-[6-(2-aminopyrimidin-5-yl)pyridin-3-yl]cyclobutyl}-1,2,4-oxadiazol-5-yl)pyridin-2-yl]piperazine-2-carboxylate] were 8.48 and 7.04.
Turning to `Nc1ncc(-c2ccc(C3(c4noc(-c5ccc(N6CCN[C@H](C(=O)O)C6)nc5)n4)CCC3)cn2)cn1` [Example 41, (2S)-4-[5-(3-{1-[6-(2-aminopyrimidin-5-yl)pyridin-3-yl]cyclobutyl}-1,2,4-oxadiazol-5-yl)pyridin-2-yl]piperazine-2-carboxylic acid], the pIC50 was 8.11 in assay [1] and under 5.30 in assay [2].

(Values after patent US8575201B2 (Boehringer Ingelheim International GmbH, priority 2010, dated 2013).)
